{"source": "paper PMC8512562", "about": "“Semisynthetic Derivatives of Selected Amaryllidaceae Alkaloids as a New Class of Antimycobacterial Agents” (Molecules, 2021)", "key": {"[1]": {"tested_on": "Mycobacterium tuberculosis H37Ra", "assay": "Antimycobacterial screening (microdilution broth, resazurin) against M. tuberculosis H37Ra", "assay_type": "cell-based", "settings": "Mycobacterium tuberculosis"}, "[2]": {"tested_on": "Mycobacterium smegmatis DSM 43465 (ATCC 607)", "assay": "Antimycobacterial screening (microdilution broth, resazurin) against M. smegmatis", "assay_type": "cell-based", "settings": "Mycolicibacterium smegmatis, 48 h, read-out: MIC M. smegmatis"}, "[3]": {"tested_on": "Mycobacterium aurum DSM 43999 (ATCC 23366)", "assay": "Antimycobacterial screening (microdilution broth, resazurin) against M. aurum", "assay_type": "cell-based", "settings": "Mycolicibacterium aurum, 72 h, read-out: MIC M. aurum"}, "HepG2 cells": {"tested_on": "HepG2 cells", "assay": "cells", "assay_type": "cell-based, Human", "settings": "for IC50: Homo sapiens, HepG2, MTT, 24 h incubation"}, "[4]": {"tested_on": "M. tuberculosis H37Ra, M. aurum and M. smegmatis", "assay": "Antimycobacterial screening, MICs stated over all studied strains", "assay_type": "cell-based, Mycobacterium", "settings": "read-out: MICs against all studied strains"}, "[5]": {"settings": "H37RA, read-out: MIC Mtb H37Ra (µM)"}, "[6]": {"settings": "M. tuberculosis H37Ra, resazurin added after 120 h, read-out: MIC Mtb H37Ra"}, "[7]": {"settings": "range over M. tuberculosis H37Ra, M. aurum, M. smegmatis"}}, "note": "Read-outs that look alike come from different tables or passages of the source."}
{"smiles": "COc1cc2c(cc1OC)[C@@]13C=C[C@@H](OC(=O)c4cc(C)cc(C)c4)C[C@@H]1N(CC3)C2", "note": "[5a, 3-O-(3,5-dimethylbenzoyl)maritidine]", "values": [{"measurement": "MIC", "setting": "[1]; [5]", "result": 8.6, "unit": "µM"}, {"measurement": "MIC", "setting": "[1]; [6]", "result": 3.91, "unit": "µg/mL"}, {"measurement": "MIC", "setting": "[2]", "result": 15.6, "unit": "µg/mL"}, {"measurement": "MIC", "setting": "[3]", "result": 15.6, "unit": "µg/mL"}, {"measurement": "SI (selectivity index)", "setting": "HepG2 cells", "result": 2.17}, {"measurement": "IC50", "setting": "HepG2 cells", "result": "18.7 ± 2.7", "unit": "µM"}, {"measurement": "MIC", "setting": "[4]; [7]", "result": "3.91 to 15.6", "unit": "µg/mL"}]}
{"smiles": "O=C(O[C@@H]1C=C[C@]23CCN(Cc4cc5c(cc42)OCO5)[C@H]3C1)c1cccc2ccccc12", "note": "[4a, 3-O-(1-naphthoyl)vittatine]", "values": [{"measurement": "MIC", "setting": "[1]; [5]", "result": 8.5, "unit": "µM"}, {"measurement": "MIC", "setting": "[1]; [6]", "result": 3.91, "unit": "µg/mL"}, {"measurement": "MIC", "setting": "[2]", "result": 7.81, "unit": "µg/mL"}, {"measurement": "MIC", "setting": "[3]", "result": 3.91, "unit": "µg/mL"}, {"measurement": "SI (selectivity index)", "setting": "HepG2 cells", "result": 2.79}, {"measurement": "IC50", "setting": "HepG2 cells", "result": "23.7 ± 2.2", "unit": "µM"}, {"measurement": "MIC", "setting": "[4]; [7]", "result": "3.91 to 7.81", "unit": "µg/mL"}]}
{"smiles": "CCOc1cc(OCC)cc(C(=O)O[C@H]2C=C[C@@]34CCN(C)Cc5ccc(OC)c(c53)O[C@H]4C2)c1", "note": "[1p, 6-O-(3,5-diethoxybenzoyl)galanthamine]", "values": [{"measurement": "MIC", "setting": "[1]; [5]", "result": 7.6, "unit": "µM"}, {"measurement": "MIC", "setting": "[1]; [6]", "result": 3.91, "unit": "µg/mL"}, {"measurement": "MIC", "setting": "[2]", "result": 15.6, "unit": "µg/mL"}, {"measurement": "MIC", "setting": "[3]", "result": 7.81, "unit": "µg/mL"}, {"measurement": "SI (selectivity index)", "setting": "HepG2 cells", "result": 2.64}, {"measurement": "IC50", "setting": "HepG2 cells", "result": "20.1 ± 2.1", "unit": "µM"}, {"measurement": "MIC", "setting": "[4]; [7]", "result": "3.91 to 15.6", "unit": "µg/mL"}, {"measurement": "MIC", "setting": "[4]; range over the studied strains", "result": "7.6 to 30.2", "unit": "µM"}]}
{"smiles": "COc1ccc2c3c1O[C@H]1C[C@@H](OC(=O)c4ccc5ccccc5c4)C=C[C@@]31CCN(C)C2", "note": "[1r, 6-O-(2-naphthoyl)galanthamine]", "values": [{"measurement": "MIC", "setting": "[1]; [5]", "result": 4.1, "unit": "µM"}, {"measurement": "MIC", "setting": "[1]; [6]", "result": 1.98, "unit": "µg/mL"}, {"measurement": "MIC", "setting": "[2]", "result": 7.81, "unit": "µg/mL"}, {"measurement": "MIC", "setting": "[3]", "result": 3.91, "unit": "µg/mL"}, {"measurement": "SI (selectivity index)", "setting": "HepG2 cells", "result": 5.17}, {"measurement": "IC50", "setting": "HepG2 cells", "result": "21.2 ± 3.8", "unit": "µM"}, {"measurement": "MIC", "setting": "[4]; [7]", "result": "1.98 to 7.81", "unit": "µg/mL"}]}
{"smiles": "COC1CC2C(=CC1OC(=O)c1cccc3ccccc13)C1CN2Cc2cc3c(cc21)OCO3", "note": "(stereo not drawn) [3f, 2-O-(1-naphthoyl)-3-O-methylpancracine]", "values": [{"measurement": "MIC", "setting": "[1]; [5]", "result": 7.9, "unit": "µM"}, {"measurement": "MIC", "setting": "[1]; [6]", "result": 3.91, "unit": "µg/mL"}, {"measurement": "MIC", "setting": "[2]", "result": 3.91, "unit": "µg/mL"}, {"measurement": "MIC", "setting": "[3]", "result": 3.91, "unit": "µg/mL"}, {"measurement": "SI (selectivity index)", "setting": "HepG2 cells", "result": 3.51}, {"measurement": "IC50", "setting": "HepG2 cells", "result": "27.7 ± 4.7", "unit": "µM"}, {"measurement": "MIC", "setting": "[4]; [7]", "result": 3.91, "unit": "µg/mL"}]}
{"smiles": "O=C(O[C@@H]1C=C[C@]23CCN(Cc4cc5c(cc42)OCO5)[C@H]3C1)c1ccc2ccccc2c1", "note": "[4b, 3-O-(2-naphthoyl)vittatine]", "values": [{"measurement": "MIC", "setting": "[1]; [5]", "result": 8.5, "unit": "µM"}, {"measurement": "MIC", "setting": "[1]; [6]", "result": 3.91, "unit": "µg/mL"}, {"measurement": "MIC", "setting": "[2]", "result": 7.81, "unit": "µg/mL"}, {"measurement": "MIC", "setting": "[3]", "result": 3.91, "unit": "µg/mL"}, {"measurement": "SI (selectivity index)", "setting": "HepG2 cells", "result": 2.17}, {"measurement": "IC50", "setting": "HepG2 cells", "result": "18.5 ± 2", "unit": "µM"}, {"measurement": "MIC", "setting": "[4]; [7]", "result": "3.91 to 7.81", "unit": "µg/mL"}]}
{"smiles": "COc1ccc2c3c1O[C@H]1C[C@@H](OC(=O)c4ccc(C(C)(C)C)cc4)C=C[C@@]31CCN(C)C2", "note": "[1h, 6-O-(4-tert-butylbenzoyl)galanthamine]", "values": [{"measurement": "MIC", "setting": "[1]; [5]", "result": 6.9, "unit": "µM"}, {"measurement": "MIC", "setting": "[1]; [6]", "result": 3.12, "unit": "µg/mL"}, {"measurement": "MIC", "setting": "[2]", "result": 7.81, "unit": "µg/mL"}, {"measurement": "MIC", "setting": "[3]", "result": 7.81, "unit": "µg/mL"}, {"measurement": "SI (selectivity index)", "setting": "HepG2 cells", "result": 2.43}, {"measurement": "IC50", "setting": "HepG2 cells", "result": "16.8 ± 4.2", "unit": "µM"}, {"measurement": "MIC", "setting": "[4]; [7]", "result": "3.12 to 7.81", "unit": "µg/mL"}]}
{"smiles": "CCCCc1ccc(C(=O)O[C@H]2C=C[C@@]34CCN(C)Cc5ccc(OC)c(c53)O[C@H]4C2)cc1", "note": "[1i, 6-O-(4-butylbenzoyl)galanthamine]", "values": [{"measurement": "MIC", "setting": "[1]; [5]", "result": 3.5, "unit": "µM"}, {"measurement": "MIC", "setting": "[1]; [6]", "result": 1.56, "unit": "µg/mL"}, {"measurement": "MIC", "setting": "[2]", "result": 7.81, "unit": "µg/mL"}, {"measurement": "MIC", "setting": "[3]", "result": 1.98, "unit": "µg/mL"}, {"measurement": "SI (selectivity index)", "setting": "HepG2 cells", "result": 4.20}, {"measurement": "IC50", "setting": "HepG2 cells", "result": "14.7 ± 1.6", "unit": "µM"}, {"measurement": "MIC", "setting": "[4]; [7]", "result": "1.56 to 7.81", "unit": "µg/mL"}]}
